Measurements from ChEMBL document CHEMBL1146281, “Synthesis and evaluation of peptidic maleimides as transglutaminase inhibitors” (Bioorg Med Chem Lett, 2007).

Species on record: Cavia porcellus
Experiment: Ratio of Kinactivation to KI of guinea pig recombinant liver TGase expressed in Escherichia coli

Ratio	Structure (SMILES)
17.1 mM⁻¹ min⁻¹	O=C(N[C@@H](CCCCN1C(=O)C=CC1=O)C(=O)OCc1ccccc1)OCc1ccccc1
0.67 mM⁻¹ min⁻¹	O=C(N[C@@H](CCN1C(=O)C=CC1=O)C(=O)OCc1ccccc1)OCc1ccccc1
6.26 mM⁻¹ min⁻¹	O=C(N[C@@H](CCCN1C(=O)C=CC1=O)C(=O)OCc1ccccc1)OCc1ccccc1
0.83 mM⁻¹ min⁻¹	COC(=O)CNC(=O)[C@H](CCCCN1C(=O)C=CC1=O)NC(=O)OCc1ccccc1
0.43 mM⁻¹ min⁻¹	COC(=O)CNC(=O)[C@H](CCCN1C(=O)C=CC1=O)NC(=O)OCc1ccccc1
0.28 mM⁻¹ min⁻¹	COC(=O)CNC(=O)[C@H](CCN1C(=O)C=CC1=O)NC(=O)OCc1ccccc1
